US20130072468A1, “SUBSTITUTED PIPERAZINES AS CB1 ANTAGONISTS” (priority 2011, published 2013)

Molecular target: T1, cannabinoid CB1 (Homo sapiens, UniProt P21554)
T1 construct: purchased
Assay: Competition binding assay for cannabinoid CB1 affinity (3H-CP55,940 displacement, membranes)
Conditions: competition binding vs 0.5 nM 3H-CP55,940; Ki by Cheng-Prusoff; read-out: Ki values in the assay described above
Description: Method for Evaluating Cannabinoid CB1 and CB affinity
Competition binding assays for cannabinoid CB1 and CB2 affinity were performed by incubating commercially purchased membranes prepared from cells expressing each receptor subtype (8 μg pro) with 0.5 nM ^3H-CP55,940, a non-selective cannabinoid agonist, along with concentrations of drug ranging from 0.0001-3 μM in Buffer A (5 mM MgCl2, 2.5 mM EDTA and […] BSA). Non-specific binding was defined in the presence of 10 μM CP55,940. For saturation studies, concentrations of ^3H-CP55,940 ranging from 0.1-5 nM were incubated with membranes in the presence and absence of 10 μM CP55,940. Assays were terminated after incubation for 1½ hours by rapid filtration onto 0.3 polyethylenamine treated GF/C filterplates using a BRANDEL cell harvester. The plates were dried and MICROSCINT scintillation cocktail was added, after which the bound radioactivity was quantified using a TOPCOUNT scintillation counter.
The dissociation constant (Kd) of ^3H-CP55,940 at the CB1 and CB2 receptor were determined by plotting specific binding at each concentration of radioligand, and analysis by non-linear regression. For competition studies, the concentration of each drug that inhibited 50 percent of ^3H-CP55,940 binding (IC50) was determined by non-linear regression analysis of the radioligand displacement curves. Affinity constants (Ki) were calculated using the equation derived by Cheng and Prusoff (1973), defined as: IC50/1+[conc. ligand/Kd].

T1 sequence (P21554 whole entry): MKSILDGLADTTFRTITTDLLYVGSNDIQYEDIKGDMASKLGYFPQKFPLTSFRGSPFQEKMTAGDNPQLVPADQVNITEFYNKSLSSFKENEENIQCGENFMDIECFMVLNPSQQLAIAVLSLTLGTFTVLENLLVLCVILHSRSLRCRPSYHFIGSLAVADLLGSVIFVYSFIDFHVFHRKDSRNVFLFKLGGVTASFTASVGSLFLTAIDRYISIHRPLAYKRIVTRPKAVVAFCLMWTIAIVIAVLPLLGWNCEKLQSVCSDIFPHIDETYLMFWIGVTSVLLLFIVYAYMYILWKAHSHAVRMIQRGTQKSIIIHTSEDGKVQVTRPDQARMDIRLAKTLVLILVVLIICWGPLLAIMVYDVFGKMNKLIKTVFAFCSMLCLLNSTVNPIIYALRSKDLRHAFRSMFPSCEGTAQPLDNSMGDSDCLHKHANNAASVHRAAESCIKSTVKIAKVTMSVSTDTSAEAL

| Ki [nM] | SMILES |
| --- | --- |
| ≥ 900 | COc1ccc(N2CCNC[C@H]2c2ccc(F)cc2)c(C#N)c1 [Example 826e] |
| ≥ 900 | N#Cc1ccc(N2CCNC[C@H]2c2ccc(Cl)cc2)nc1 [Example 826b] |
| 0.2 to 100 | C[C@@](O)(CN1CCN(c2ccc(Cl)cc2Cl)[C@H](c2ccc(Cl)cc2)C1)c1ccc(N)nc1 [Example 1037] |
| ~873 | CC(C)(C)CCN1CCC(C(C)(O)CN2CCN(c3ccc(Cl)cc3Cl)[C@H](c3ccc(Cl)cc3)C2)CC1 (some centres unmarked) [Example 1089] |
| 0.2 to 100 | C[C@@](O)(CN1CCN(c2ccc(Cl)cc2Cl)[C@H](c2ccc(Cl)cc2)C1)c1ccc(Cl)cc1 [Example 930] |
| 0.2 to 100 | C[C@@](O)(CN1CCN(c2ccc(C#N)cc2Cl)[C@H](c2ccc(Cl)cc2)C1)c1cc(F)cc(F)c1 [Example 949] |
| ≥ 900 | CC(O)(CN1CCN(c2ccc(Cl)cc2Cl)[C@H](c2ccc(Cl)cc2)C1)C(=O)O (some centres unmarked) [Example 877b] |
| ≥ 900 | N#Cc1cccnc1N1CCNC[C@H]1c1ccc(Cl)cc1 [Example 826d] |
| ≥ 900 | COC(=O)c1ccc(N2CCN(Cc3ccccc3)C[C@H]2c2ccc(Cl)cc2)cc1 [Example 817] |
| ≥ 900 | COc1ccc(N2CCNC[C@H]2c2ccc(Cl)cc2)c(F)c1 [Example 822] |
| ≥ 900 | O=C1CN(Cc2ccccc2)C[C@@H](c2ccc(Cl)cc2)N1c1ccc(O)cc1Cl [Example 830] |
| ≥ 900 | COc1cccc([C@@H]2CNCCN2c2ccc(C#N)cc2Cl)c1 [Example 813b] |
| ≥ 900 | COc1ccc(N2CCN(Cc3ccccc3)C[C@H]2c2ccc(Cl)cc2)c(Cl)c1 [Example 807] |
| ≥ 900 | CC(C)(C)OC(=O)N[C@@H](C(=O)N1CCN(c2ccc(Cl)cc2Cl)[C@H](c2ccc(Cl)cc2)C1)c1ccc(Cl)cc1 [Example 1167a] |
| ≥ 900 | O=C1CN(Cc2ccccc2)C[C@@H](c2ccc(Cl)cc2)N1c1ccc(O)cc1 [Example 831] |
| 0.2 to 100 | CC(O)(CN1CCN(c2ccc(Cl)cc2Cl)[C@H](c2ccc(Cl)cc2)C1)C1CCN(S(=O)(=O)C2CC2)CC1 (some centres unmarked) [Example 1091] |
| ≥ 900 | OCc1ccc(N2CCN(Cc3ccccc3)C[C@H]2c2ccc(Cl)cc2)cc1 [Example 824] |
